# Entries after “also recorded” stand apart in the source; their conditions may differ. Read-outs that look alike come from different tables or passages of the source.
# B1: SBTI (protein, UniProt P01070 25-205, looked up)
# Trypsin inhibitor A: DFVLDNEGNPLENGGTYYILSDITAFGGIRAAPTGNERCPLTVVQSRNELDKGIGTIISSPYRIRFIAEGHPLSLKFDSFAVIMLCVGIPTEWSVVEDLPEGPAVKIGENKDAMDGWFRLERVSDDEFNNYKLVFCPQQAEDDKCGDIGISIDHDDGTRRLVVSKNKPLVVQFQKLDKESL
# B2: thermolysin: thermolysin (EC 3.4.24.27) from Bacillus thermoproteolyticus (protein, UniProt P00800 233-548, looked up)
# Thermolysin: ITGTSTVGVGRGVLGDQKNINTTYSTYYYLQDNTRGNGIFTYDAKYRTTLPGSLWADADNQFFASYDAPAVDAHYYAGVTYDYYKNVHNRLSYDGNNAAIRSSVHYSQGYNNAFWNGSQMVYGDGDGQTFIPLSGGIDVVAHELTHAVTDYTAGLIYQNESGAINEAISDIFGTLVEFYANKNPDWEIGEDVYTPGISGDSLRSMSDPAKYGDPDHYSKRYTGTQDNGGVHINSGIINKAAYLISQGGTHYGVSVVGIGRDKLGKIFYRALTQYLTPTSNFSQLRAAAVQSATDLYGSTSQEVASVKQAFDAVGVK
# Assays:
# [1] = tested on: hemorrhagic activity of B. anthracis culture supernatant (BACS); parameters: species or system B. anthracis (delta Ames); details: in vivo, sc
# B. anthracis (Sterne) = tested on: B. anthracis (Sterne); parameters: species or system Bacillus anthracis; details: in vivo
# [2] = tested on: BACS proteolytic activity; type: biochemical, B. anthracis
# [3] = mouse, in vivo
molecule,measurement,setting,value
"O=C(O)CN(CCN(CC(=O)O)CC(=O)O)CC(=O)O [EDTA, ethylenediaminetetraacetic acid]",suppression of hemorrhagic effect of BACS,[1],effectively abrogated
O=C(O)c1cn(C2CC2)c2cc(N3CCNCC3)c(F)cc2c1=O [ciprofloxacin],effectiveness of treatment,B. anthracis (Sterne),ineffective
same,survival,B. anthracis (Sterne),20%
same,survival (effectiveness),B. anthracis (Sterne),70%
same,survival,B. anthracis (Sterne); ip,20%
C[C@H]1c2cccc(O)c2C(=O)C2=C(O)[C@]3(O)C(=O)C(C(N)=O)=C(O)[C@@H](N(C)C)[C@@H]3[C@@H](O)[C@@H]21 [doxycycline],survival,B. anthracis (Sterne); ip,30%
CC[C@@H](C)[C@@H](O)[C@H](C)C(=O)[C@H](C)/C=C(\C)C[C@H](C)[C@@H]1OC(=O)[C@H]1CC [ebelactone B],effect on survival / protection,B. anthracis (Sterne),did not increase survival over the effects of doxycycline alone
"c1cnc2c(c1)ccc1cccnc12 [phenanthroline, 1,10-phenanthroline]",inhibition of hydrolysis of gelatin and casein by BACS,[2],inhibited
CC(C)C[C@H](NP(=O)(O)O[C@@H]1O[C@@H](C)[C@H](O)[C@@H](O)[C@H]1O)C(=O)N[C@@H](Cc1c[nH]c2ccccc12)C(=O)O [phosphoramidon],inhibition of hydrolysis of gelatin and casein by BACS,[2],inhibited
same,suppression of hemorrhagic effect of BACS,[1],effective; also recorded: effectively abrogated
B1,suppression of hemorrhagic effect of BACS,[1],effectively abrogated
B2,dose range in which hemorrhagic activity was detectable,[3],10 to 100 µg

# Source: patent US20070231334A1 (priority 2004, published 2007)
